Data published in patent publication US12677825B2, “Composition for protecting islet transplantation” (LG CHEM, LTD., priority 2020, dated 2026).

System: TNF-α, IL-1β, IL-6, c-JUN and HMGB1
Experiment: Real-time qRT-PCR transcript levels during serum-deprived ex vivo culture
Type: cell-based, mouse
Conditions: after 1 and 3 days of ex vivo culture, BSA+Compound 1 vs BSA group; FIGS. 6C, 6D
Experimental: Purified hIAPP^+/− FVB/N and C57BL/6J mouse were suspended in RPMI 1640 (Gibco, Grand Island, NY, USA) containing 100 IU/mL penicillin and 100 μg/mL streptomycin, and cultured at 37° C. in a fully humidified 5% CO2 atmosphere. Purified NHP islets were suspended in CMRL 1066 medium (Coming Life Sciences, Tewksbury, MA; catalog number 99-663-CV) containing 100 IU/mL penicillin and 100 μg/mL streptomycin, and cultured at 37° C. in a fully humidified 5% CO2 atmosphere. […]
Harvested islets were treated with 500 μL Trizol (Life Technologies, Grand Island, NY, USA), and then 100 μL of chloroform was added. […] RNA purity was assessed by NanoDrop (Thermo Scientific, Wilmington, DE, USA) and agarose gel electrophoresis. […] Total RNA was reverse transcribed to quantify the expression of genes using the SuperScript™ II reverse transcription system (Life Technologies) according to the manufacturer's protocol.
Real-time qRT-PCR was performed using gene-specific primer pairs (Table 1). […] To quantify the expression level of genes, real-time PCR was performed using a SYBR premix kit (Takara Bio Inc., Tokyo, Japan) and an ABI Prism 7000 (Applied Biosystems, Foster City, CA, USA) according to the manufacturers' protocols.

O=S1(=O)CCN(Cc2cc(NC3CCOCC3)c3[nH]c(-c4ccccc4)cc3c2)CC1 [Compound 1] was tested, and the “transcript levels of TNF-α, IL-1β, IL-6, c-JUN and HMGB1” value was “significantly attenuated”.
